The values that follow come from article PMC9966845, “Targeting Siderophore-Mediated Iron Uptake in M. abscessus: A New Strategy to Limit the Virulence of Non-Tuberculous Mycobacteria” (Pharmaceutics, 2023).

Data set [1] concerns the target T1, Mab-SaS (Mycobacteroides abscessus, UniProt B1MAQ5). The experiment in a line: Grating-Coupled Interferometry (GCI) binding analysis. Set-up: species or system M. abscessus. Conditions: 25 °C, 1:1 kinetic model. The method, then:
The binding affinity and ligand efficiency of the furan-based library was evaluated by Grating-Coupled Interferometry (GCI). The analyses were performed by the Creoptix WAVE system (Malvern Panalytical, Malvern, UK). Borate buffer (100 mM sodium borate pH 9.0, 1 M NaCl) was used for chip conditioning. Experiments were carried out by reversibly capturing His-tagged Mab-SaS (50 μg/mL in running buffer, i.e., PBS, 0.05% Tween 20, 0.5% DMSO) on 4PCP-NTA WAVE chips, according to the manufacturer’s instructions, at a density of 3000 pg/mm^2.
Regeneration-free injections of a 1:2 dilution series in the 500–3 μM range for each compound of the furan-based library in running buffer were performed at 25 °C, using a flow rate of 100 μL/min.
A dimethyl sulfoxide (DMSO) calibration curve was used for bulk correction, and blank injections for double referencing. Data were analyzed and corrected using the Creoptix WAVE control software (correction applied: X and Y offset; DMSO calibration; double referencing). The processed data were fitted using the “1:1” kinetic model of the WAVE control software. All the experiments were performed in triplicate. Descriptive Statistical Analysis, as implemented in Microsoft Office Excel 10 (Microsoft Corporation, Redmond, WA, USA), was employed to calculate the mean of the obtained values of kon, koff, and KD as a measure of central tendency; standard deviations of the former values were computed as a measure of dispersion.

Data set [2] deals with Mab. The experiment in a line: MIC evaluation by resazurin assay in iron-limiting conditions. The data set is classed as cell-based, M. abscessus. As to conditions: Mycobacteroides abscessus, chelated Sauton's medium, highest concentration tested 500 μM, read-out: antimycobacterial activity (MIC). The method, then:
Exponentially growing primary cultures were diluted 1:10 in iron-depleted Sauton’s medium enriched with 10% OACD. The secondary Mab culture growing in iron-limiting conditions was then diluted to OD600 0.005 using iron-depleted Sauton’s medium. Each well of the 96-well plate was filled with 100 μL of the diluted cell suspension. For each plate, the first four wells of the first row were filled with the cellular suspension and no drug was added (negative control). The following four wells were filled with the cellular suspension and treated with the vehicle volume. The last four wells of the first row were filled with the cellular suspension and treated with 1 mg/mL Streptomycin (positive control). Only the first well of the other rows was filled with 200 μL of cell suspension. In this well, the highest concentration of compound 1 (500 µM) was added and then two-fold serially diluted. After 24 h of incubation at 37 °C, 10 μL/well of 0.01% resazurin was added. The plate was re-incubated at 37 °C for 24 h and then read out. Pink wells indicated bacterial viability, whereas wells with an unchanged blue color indicated cidality. The MIC was counted as the lowest compound concentration causing cidality.
A general note: Resazurin is reduced to fluorescent resorufin, in cell work by metabolically active cells.

Data set [3] deals with M. bovis BCG. Conditions: cited from earlier work.
Data set [4] concerns the target T1, Mab-SaS. The experiment in a line: Mab-SaS inhibition, fluorimetric enzymatic assay. The data set is classed as biochemical, M. abscessus. Conditions: for remaining activity at 100 µM: 100 μM ligand concentration, read-out: %RA (residual enzymatic activity). The method, then:
The selected furan-based compounds were screened against Mab-SaS enzymatic activity at 100 µM (dissolved in a solution containing 10% DMSO). Assays were performed at subsaturating concentrations of chorismic acid (50 μM), as above. For the most promising compounds, the IC50 value was also determined.
To further verify the reliability of the inhibition results against Mab-SaS, we determined the IC50 of compound 1 in the presence of 0.1 mg/mL bovine serum albumin (BSA) or in the presence of 0.01% (v/v) Triton X-100 as a detergent. Moreover, to exclude an unspecific binding to cysteine residues, we also tested the IC50 with 100 μM of 1,4-dithio-DL-threitol (DTT).

Data set [5] has as its system C=C(O[C@@H]1C=C(C(=O)O)C=C[C@H]1O)C(=O)O. The data set is described as follows: purified protein, by the assay type. Conditions: other: substrate of Mab-SaS, 37 °C, pH 7.5.
Setting [6] is: no additive, 50 μM chorismic acid, read-out: IC50.

Read-outs that look alike come from different tables or passages of the source.

T1 sequence (B1MAQ5 entry or part of it): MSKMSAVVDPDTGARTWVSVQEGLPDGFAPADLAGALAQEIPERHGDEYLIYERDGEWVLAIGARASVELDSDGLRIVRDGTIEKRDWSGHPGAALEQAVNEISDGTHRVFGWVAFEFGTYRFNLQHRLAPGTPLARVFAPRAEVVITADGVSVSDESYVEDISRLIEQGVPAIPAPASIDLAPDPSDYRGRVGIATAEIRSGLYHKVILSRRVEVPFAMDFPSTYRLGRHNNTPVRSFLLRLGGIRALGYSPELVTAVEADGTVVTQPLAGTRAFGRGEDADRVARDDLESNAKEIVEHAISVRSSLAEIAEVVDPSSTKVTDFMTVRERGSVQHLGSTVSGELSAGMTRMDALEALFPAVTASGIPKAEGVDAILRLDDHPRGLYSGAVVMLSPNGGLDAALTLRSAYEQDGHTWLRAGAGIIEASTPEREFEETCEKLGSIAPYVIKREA

The Kd is the equilibrium constant for the complex coming apart. The koff is the rate constant with which the complex falls apart. A low value points to a long-lived complex. In general, kon refers to the second-order rate constant of association. A lower kon goes with slower complex formation. Broadly, the MIC is the least concentration at which growth counts as inhibited. For orientation: IC50 means the concentration that gives 50% inhibition. What is called inhibition is how much of the control response was suppressed. A high value points to strong suppression. In data set [1], `O=C(O)c1ccc(-c2ccc(C(F)(F)F)cc2C(F)(F)F)o1` [Compound 1, 5-(2,4-bis(trifluoromethyl)phenyl)furan-2-carboxylic acid] displayed a Kd of 6.11 ± 0.16 µM. Moreover, the koff in data set [1] is 9.77e-05 s⁻¹. The kon in data set [1] is 15.4 ± 5 M⁻¹ s⁻¹. For the same molecule, the MIC in data set [2] is above 500 µM. In addition, the “antimycobacterial activity on M. bovis BCG” value in data set [3] was 500 µM. Moreover, the IC50 in data set [4] (100 μM DTT in the reaction mixture, read-out: IC50 in the presence of DTT) turned out to be 6.1 ± 1.42 µM; in data set [4] (0.1 mg/mL bovine serum albumin (PAIN analysis), read-out: IC50 in the presence of BSA), 5.2 ± 0.68 µM; in data set [4] (0.01% (v/v) Triton X-100 (PAIN analysis), read-out: IC50 in the presence of Triton X-100) it was 6.5 ± 0.56 µM; in data set [4] (setting [6]), 5.3 ± 1.5 µM. Also, testing at 100 µM in data set [4] (100 μM compound) gave an inhibition of 98.8%. The remaining activity at 100 µM in data set [4] (50 μM chorismic acid) came out at 1.2 ± 2.8%.

With `Nc1cc([N+](=O)[O-])ccc1-c1ccc(C(=O)O)o1` [Compound 2, 5-(2-amino-4-nitrophenyl)furan-2-carboxylic acid], in data set [1], the Kd is 12.7 ± 3.32 µM, the koff amounted to 0.00303 s⁻¹ and the kon was 244 ± 6200 M⁻¹ s⁻¹. Moreover, the remaining activity at 100 µM in data set [4] (50 μM chorismic acid) turned out to be 2.3 ± 0.7%. In data set [4] (setting [6]), the concentration for half-maximal inhibition (IC50) was found to be 23.6 ± 1.8 µM.

In data set [1], `O=C(O)c1ccc(-c2cc(C(F)(F)F)cc(C(F)(F)F)c2)o1` [Compound 3, 5-(3,5-bis(trifluoromethyl)phenyl)furan-2-carboxylic acid] yielded a Kd of 67.5 ± 9.51 µM, a koff of 0.00675 ± 6.1e-07 s⁻¹ and a kon of 100 ± 500 M⁻¹ s⁻¹. The remaining activity at 100 µM in data set [4] (50 μM chorismic acid) stood at 15.6 ± 2.5%. The IC50 in data set [4] (setting [6]) was 29.5 ± 1.6 µM.

As a reminder, the Km is the substrate concentration at which the rate is half of its maximum. For the molecule “Mab-SaS (Mycobacteroides abscessus ATCC 19977)”, the Michaelis constant (Km) in data set [5] worked out at 58 µM.
